Numbered stars: 1 amine (or outer) side, 2 acyl side, 3 side chain; on linkers, the order of the positions; unused ones are H or OH. Square brackets hold non-standard residues; d marks the D form. Side chains are listed from the residue outwards. Peptide text beside a SMILES is read from it. * marks the point of attachment. C20 diacid = O=C(O)CCCCCCCCCCCCCCCCCCC(=O)*; γGlu = O=C(O)[C@H](CCC(=O)[*:2])N[*:1]; AEEA = NCCOCCOCC(=O)O; Aib = CC(C)(N)C(=O)O
Columns and labels:
human GLP-1R = human GLP-1R (Homo sapiens, UniProt P43220); assay: [125I]-GLP-1 binding (SPA), human GLP-1 receptor; design: expressed in transfected cells; crude membranes; settings: read-out: hGLP1R Ki, (nM) (SEM, n)
Chain of human GLP-1R (P43220 24-463): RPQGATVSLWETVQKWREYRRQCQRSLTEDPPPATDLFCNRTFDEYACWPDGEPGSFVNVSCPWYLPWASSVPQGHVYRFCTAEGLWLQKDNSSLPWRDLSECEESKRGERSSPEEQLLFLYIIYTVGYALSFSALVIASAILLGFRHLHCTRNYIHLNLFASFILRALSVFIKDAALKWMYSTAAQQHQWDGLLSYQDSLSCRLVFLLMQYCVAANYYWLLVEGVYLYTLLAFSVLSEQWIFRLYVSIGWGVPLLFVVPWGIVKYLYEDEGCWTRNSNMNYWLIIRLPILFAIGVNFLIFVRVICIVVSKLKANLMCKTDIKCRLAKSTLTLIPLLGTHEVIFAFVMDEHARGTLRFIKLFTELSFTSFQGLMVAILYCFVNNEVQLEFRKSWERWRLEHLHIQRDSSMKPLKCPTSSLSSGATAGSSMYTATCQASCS
In short: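 Frozen cell pellets are lysed on ice in hypotonic Tris buffer, pH 7.5, homogenized, and centrifuged to a membrane pellet resuspended at about 1 to 3 mg/mL. Binding is then measured in HEPES-based buffer at pH 7.4, and curves are fitted to give IC50 and Ki.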

[1] = molecular target: T1, gastric inhibitory peptide receptor (GIPR) (Homo sapiens, UniProt P48546); assay: cAMP pharmacological functional assay in presence of casein, hGIPR; type: cell-based; settings: HEK293 cells expressing hGIPR, 0.1% Casein, geometric mean; read-out: hGIPR cAMP Rel EC50 nM (SEM, n)
T1 sequence (P48546 22-466): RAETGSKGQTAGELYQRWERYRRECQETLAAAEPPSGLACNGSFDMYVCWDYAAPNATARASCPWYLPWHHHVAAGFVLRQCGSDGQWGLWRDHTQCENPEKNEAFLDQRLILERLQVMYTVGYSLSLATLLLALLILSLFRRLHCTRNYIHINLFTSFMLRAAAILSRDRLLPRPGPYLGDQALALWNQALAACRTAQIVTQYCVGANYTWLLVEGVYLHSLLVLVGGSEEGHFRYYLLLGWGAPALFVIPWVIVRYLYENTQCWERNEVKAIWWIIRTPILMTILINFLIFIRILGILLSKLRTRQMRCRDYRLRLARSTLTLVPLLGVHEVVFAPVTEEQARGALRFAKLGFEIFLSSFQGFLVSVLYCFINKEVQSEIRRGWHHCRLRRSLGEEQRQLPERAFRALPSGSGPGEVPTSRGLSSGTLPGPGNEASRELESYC

human Gcg receptor = molecular target: T2, human Gcg receptor (Homo sapiens, UniProt P47871); assay: [125I]-Glucagon binding (SPA), human Gcg receptor; settings: read-out: hGLcgR Ki, nM (SEM, n)
T2 construct: expressed in transfected cells; crude membranes
T2 sequence (P47871 26-477): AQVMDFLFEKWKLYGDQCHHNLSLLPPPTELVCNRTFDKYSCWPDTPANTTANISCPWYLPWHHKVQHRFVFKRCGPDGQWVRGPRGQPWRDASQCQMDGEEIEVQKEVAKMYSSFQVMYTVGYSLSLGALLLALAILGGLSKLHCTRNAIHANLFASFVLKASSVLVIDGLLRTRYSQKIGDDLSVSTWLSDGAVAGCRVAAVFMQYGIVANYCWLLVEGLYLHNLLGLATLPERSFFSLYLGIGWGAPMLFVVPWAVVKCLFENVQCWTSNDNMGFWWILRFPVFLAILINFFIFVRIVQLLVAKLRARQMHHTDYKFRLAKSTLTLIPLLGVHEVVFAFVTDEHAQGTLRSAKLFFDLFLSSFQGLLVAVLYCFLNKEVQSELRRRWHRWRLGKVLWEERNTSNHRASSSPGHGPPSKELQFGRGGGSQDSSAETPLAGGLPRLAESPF
In short: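 Cell pellets were lysed in hypotonic Tris buffer, pH 7.5, homogenized, and spun at low then high speed to give crude membranes. Ki was derived from the fitted IC50.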

human GIP receptor = molecular target: T3, human GIP receptor (Homo sapiens, UniProt P48546); assay: [125I]-GIP binding (SPA), human GIP receptor; settings: read-out: hGIPR Ki, nM (SEM, n)
T3 construct: expressed in transfected cells; crude membranes
T3 sequence (P48546 22-466): T1 sequence (P48546 22-466)

[2] = molecular target: human GLP-1 receptor (GLP-1R) (Homo sapiens, UniProt P43220); assay: cAMP pharmacological functional assay in presence of casein, hGLP-1R; type: cell-based; settings: HEK293 cells expressing hGLP-1R, 0.1% Casein, geometric mean; read-out: hGLP1R cAMP Rel EC50 nM (SEM, n)
Chain of human GLP-1 receptor (GLP-1R) (P43220 24-463): as the sequence (P43220 24-463) above

| SMILES | Ki (human GLP-1R) | EC50 [1] | Ki (human Gcg receptor) | Ki (human GIP receptor) | EC50 [2] |
| --- | --- | --- | --- | --- | --- |
| CC[C@H](C)[C@H](NC(=O)[C@H](CCCCN)NC(=O)[C@H](CC(=O)O)NC(=O)[C@H](CC(C)C)NC(=O)[C@H](CC(C)C)NC(=O)[C@@H](NC(=O)[C@H](CO)NC(=O)[C@H](Cc1ccc(O)cc1)NC(=O)[C@H](CC(=O)O)NC(=O)[C@H](CO)NC(=O)[C@@H](NC(=O)[C@H](Cc1ccccc1)NC(=O)[C@@H](NC(=O)CNC(=O)[C@H](CCC(=O)O)NC(=O)C(C)(C)NC(=O)[C@@H](N)Cc1ccc(O)cc1)[C@@H](C)O)[C@@H](C)O)[C@@H](C)CC)C(=O)N[C@@H](C)C(=O)N[C@@H](CCC(N)=O)C(=O)NC(C)(C)C(=O)N[C@@H](C)C(=O)N[C@@H](Cc1ccccc1)C(=O)N[C@H](C(=O)N[C@@H](CCC(=O)O)C(=O)N[C@@H](Cc1ccc(O)cc1)C(=O)N[C@@H](CC(C)C)C(=O)N[C@H](C(=O)N[C@@H](CCC(=O)O)C(=O)NCC(=O)NCC(=O)N[C@@H](CCCCNC(=O)COCCOCCNC(=O)COCCOCCNC(=O)CC[C@H](NC(=O)CCCCCCCCCCCCCCCCCCC(=O)O)C(=O)O)C(=O)N[C@@H](CO)C(=O)N[C@@H](CO)C(=O)NCC(=O)N[C@@H](C)C(=O)N1CCC[C@H]1C(=O)N1CCC[C@H]1C(=O)N1CCC[C@H]1C(=O)N[C@@H](CO)C(N)=O)[C@@H](C)CC)[C@@H](C)CC [Example 40] (H-Y[Aib]EGTFTSDYSILLDKIAQ[Aib]AFIEYLIEGGK([AEEA-AEEA-γGlu-C20 diacid])SSGAPPPS-NH2) | 7.56 nM | 0.136 nM | 150 nM | 0.0345 nM | 0.746 nM |
| CC[C@H](C)[C@H](NC(=O)[C@H](CCCCN)NC(=O)[C@H](CC(=O)O)NC(=O)[C@H](CC(C)C)NC(=O)[C@H](CC(C)C)NC(=O)[C@@H](NC(=O)[C@H](CO)NC(=O)[C@H](Cc1ccc(O)cc1)NC(=O)[C@H](CC(=O)O)NC(=O)[C@H](CO)NC(=O)[C@@H](NC(=O)[C@H](Cc1ccccc1)NC(=O)[C@@H](NC(=O)CNC(=O)[C@H](CCC(=O)O)NC(=O)C(C)(C)NC(=O)[C@@H](N)Cc1ccc(O)cc1)[C@@H](C)O)[C@@H](C)O)[C@@H](C)CC)C(=O)N[C@@H](C)C(=O)N[C@@H](CCC(N)=O)C(=O)NC(C)(C)C(=O)N[C@@H](C)C(=O)N[C@@H](Cc1ccccc1)C(=O)N[C@H](C(=O)N[C@@H](CCC(=O)O)C(=O)N[C@@H](Cc1ccc(O)cc1)C(=O)N[C@@H](CC(C)C)C(=O)N[C@H](C(=O)N[C@@H](CCC(=O)O)C(=O)NCC(=O)NCC(=O)N1CCC[C@H]1C(=O)N[C@@H](CCCCNC(=O)COCCOCCNC(=O)COCCOCCNC(=O)CC[C@H](NC(=O)CCCCCCCCCCCCCCCCCCC(=O)O)C(=O)O)C(=O)N[C@@H](CO)C(=O)NCC(=O)N[C@@H](C)C(=O)N1CCC[C@H]1C(=O)N1CCC[C@H]1C(=O)N1CCC[C@H]1C(=O)N[C@@H](CO)C(N)=O)[C@@H](C)CC)[C@@H](C)CC [Example 41] (H-Y[Aib]EGTFTSDYSILLDKIAQ[Aib]AFIEYLIEGGPK([AEEA-AEEA-γGlu-C20 diacid])SGAPPPS-NH2) | 13.4 nM | 0.229 nM | 165 nM | 0.0551 nM | 0.96 nM |
| CC[C@H](C)[C@H](NC(=O)[C@H](CCCCN)NC(=O)[C@H](CC(=O)O)NC(=O)[C@H](CC(C)C)NC(=O)[C@H](CC(C)C)NC(=O)[C@@H](NC(=O)[C@H](CO)NC(=O)[C@H](Cc1ccc(O)cc1)NC(=O)[C@H](CC(=O)O)NC(=O)[C@H](CO)NC(=O)[C@@H](NC(=O)[C@H](Cc1ccccc1)NC(=O)[C@@H](NC(=O)CNC(=O)[C@H](CCC(=O)O)NC(=O)C(C)(C)NC(=O)[C@@H](N)Cc1ccc(O)cc1)[C@@H](C)O)[C@@H](C)O)[C@@H](C)CC)C(=O)N[C@@H](C)C(=O)N[C@@H](CCC(N)=O)C(=O)NC(C)(C)C(=O)N[C@@H](C)C(=O)N[C@@H](Cc1ccccc1)C(=O)N[C@H](C(=O)N[C@@H](CCC(=O)O)C(=O)N[C@@H](Cc1ccc(O)cc1)C(=O)N[C@@H](CC(C)C)C(=O)N[C@H](C(=O)N[C@@H](CCC(=O)O)C(=O)NCC(=O)NCC(=O)N1CCC[C@H]1C(=O)N[C@@H](CO)C(=O)N[C@@H](CCCCNC(=O)COCCOCCNC(=O)COCCOCCNC(=O)CC[C@H](NC(=O)CCCCCCCCCCCCCCCCCCC(=O)O)C(=O)O)C(=O)NCC(=O)N[C@@H](C)C(=O)N1CCC[C@H]1C(=O)N1CCC[C@H]1C(=O)N1CCC[C@H]1C(=O)N[C@@H](CO)C(N)=O)[C@@H](C)CC)[C@@H](C)CC [Example 42] (H-Y[Aib]EGTFTSDYSILLDKIAQ[Aib]AFIEYLIEGGPSK([AEEA-AEEA-γGlu-C20 diacid])GAPPPS-NH2) | 13.2 nM | 0.161 nM | 160 nM | 0.0514 nM | 1.45 nM |
| CC[C@H](C)[C@H](NC(=O)[C@H](CCCCN)NC(=O)[C@H](CC(=O)O)NC(=O)[C@H](CC(C)C)NC(=O)[C@H](CC(C)C)NC(=O)[C@@H](NC(=O)[C@H](CO)NC(=O)[C@H](Cc1ccc(O)cc1)NC(=O)[C@H](CC(=O)O)NC(=O)[C@H](CO)NC(=O)[C@@H](NC(=O)[C@H](Cc1ccccc1)NC(=O)[C@@H](NC(=O)CNC(=O)[C@H](CCC(=O)O)NC(=O)C(C)(C)NC(=O)[C@@H](N)Cc1ccc(O)cc1)[C@@H](C)O)[C@@H](C)O)[C@@H](C)CC)C(=O)N[C@@H](C)C(=O)N[C@@H](CCC(N)=O)C(=O)NC(C)(C)C(=O)N[C@@H](C)C(=O)N[C@@H](Cc1ccccc1)C(=O)N[C@H](C(=O)N[C@@H](CCC(=O)O)C(=O)N[C@@H](Cc1ccc(O)cc1)C(=O)N[C@@H](CC(C)C)C(=O)N[C@H](C(=O)N[C@@H](CCC(=O)O)C(=O)NCC(=O)NCC(=O)N1CCC[C@H]1C(=O)N[C@@H](CO)C(=O)N[C@@H](CO)C(=O)N[C@@H](CCCCNC(=O)COCCOCCNC(=O)COCCOCCNC(=O)CC[C@H](NC(=O)CCCCCCCCCCCCCCCCCCC(=O)O)C(=O)O)C(=O)N[C@@H](C)C(=O)N1CCC[C@H]1C(=O)N1CCC[C@H]1C(=O)N1CCC[C@H]1C(=O)N[C@@H](CO)C(N)=O)[C@@H](C)CC)[C@@H](C)CC [Example 43] (H-Y[Aib]EGTFTSDYSILLDKIAQ[Aib]AFIEYLIEGGPSSK([AEEA-AEEA-γGlu-C20 diacid])APPPS-NH2; N-terminus assumed) | 11.8 nM | 0.112 nM | 134 nM | 0.101 nM | 0.862 nM |
| CC[C@H](C)[C@H](NC(=O)[C@H](CCCCN)NC(=O)[C@H](CC(=O)O)NC(=O)[C@H](CC(C)C)NC(=O)[C@H](CC(C)C)NC(=O)[C@@H](NC(=O)[C@H](CO)NC(=O)[C@H](Cc1ccc(O)cc1)NC(=O)[C@H](CC(=O)O)NC(=O)[C@H](CO)NC(=O)[C@@H](NC(=O)[C@H](Cc1ccccc1)NC(=O)[C@@H](NC(=O)CNC(=O)[C@H](CCC(=O)O)NC(=O)C(C)(C)NC(=O)[C@@H](N)Cc1ccc(O)cc1)[C@@H](C)O)[C@@H](C)O)[C@@H](C)CC)C(=O)N[C@@H](C)C(=O)N[C@@H](CCC(N)=O)C(=O)NC(C)(C)C(=O)N[C@@H](C)C(=O)N[C@@H](Cc1ccccc1)C(=O)N[C@H](C(=O)N[C@@H](CCC(=O)O)C(=O)N[C@@H](Cc1ccc(O)cc1)C(=O)N[C@@H](CC(C)C)C(=O)N[C@H](C(=O)N[C@@H](CCC(=O)O)C(=O)NCC(=O)NCC(=O)N1CCC[C@H]1C(=O)N[C@@H](CO)C(=O)N[C@@H](CO)C(=O)NCC(=O)N[C@@H](CCCCNC(=O)COCCOCCNC(=O)COCCOCCNC(=O)CC[C@H](NC(=O)CCCCCCCCCCCCCCCCCCC(=O)O)C(=O)O)C(=O)N1CCC[C@H]1C(=O)N1CCC[C@H]1C(=O)N1CCC[C@H]1C(=O)N[C@@H](CO)C(N)=O)[C@@H](C)CC)[C@@H](C)CC [Example 44] (H-Y[Aib]EGTFTSDYSILLDKIAQ[Aib]AFIEYLIEGGPSSGK([AEEA-AEEA-γGlu-C20 diacid])PPPS-NH2) | 10.6 nM | 0.128 nM | 121 nM | 0.0516 nM | 0.752 nM |

Source: US12252524B2, “GIP/GLP1 co-agonist compounds” (Eli Lilly and Company, priority 2018, dated 2025)
